Test results published in patent publication US20150246141A1, “DIAGNOSTIC AGENTS WITH ENHANCED SENSITIVITY/SPECIFICITY” (BEN-GURION UNIVERSITY OF THE NEGEV RESEARCH AND DEVELOPMENT …, priority 2012, published 2015).

What was measured:
[1] = system: LS174T tumors; experiment: Intraluminal (intracolonic) administration to mice bearing rectal LS174T tumors, NIR imaging of excised colon; format: in vivo, female athymic nude mice
Procedure: […] Then, the mice were sacrificed and the colons were removed. Each colon was spread on a clear film, and imaging was performed using the Odyssey® Infrared Imaging System (Li-Cor Biosciences, Lincoln, Nebr., USA.), with excitation wavelength of 780 nm and emission wavelength of 800 nm Results:

[2] = system: HT29 tumors; experiment: Intraluminal administration to mouse HT-29 tumor models, NIR imaging; format: in vivo, female athymic nude mice
Procedure: 20 min later the colon was washed extensively with PBS and then were allowed to recover for 3 h. Then, the mice were sacrificed and the colons were removed. Each colon was spread on a clear film, and imaging was performed using the Odyssey® Infrared Imaging System (Li-Cor Biosciences, Lincoln, Nebr., USA.), with excitation wavelength of 780 nm and emission wavelength of 800 nm Results:
FIGS. 4C and 4D provide results of similarly treated animals, 2 hours post-administration.

[3] = system: cancerous colorectal tissue; experiment: In situ labeling of surgically excised human colorectal cancer tissue specimens; conditions: PBS, 0.2 mg/ml; 20 minutes incubation, washed three times
Procedure: Polymer solution was dropped onto fresh surgical tissue specimens that were received 15 minutes after surgical excision. After 20 minutes of incubation with the polymeric probe, tissues were washed three times with a large volume of PBS. Tissues were then imaged immediately using the Odyssey® Infrared Imaging System (Li-Cor Biosciences, Lincoln, Nebr., USA.) with excitation wavelength of 780 nm and emission wavelength of 800 nm.

[4] = system: LS-174T human colorectal adenocarcinoma; experiment: Murine orthotopic colorectal tumor model LS-174T, intraluminal instillation, imaging of excised colon and organs; format: in vivo, female athymic nude mice; conditions: polymer applied intraluminally
Procedure: The murine orthotopic colorectal tumor model LS-174T human colorectal adenocarcinoma cells (3×10^7 cells) were injected (600 μL) into the descending colonic wall of 13 anesthetized, female athymic nude mice, after an over night fast. […] Histopathological examination was performed on paraffin fixed colonic tissue specimens, after an H&E stain and verified that the carcinoma infiltrated within the mucosa, submucosa, and muscular layer
The mice were sacrificed 3 hrs post treatment, their colons exteriorized, separated, cut open, spread on a transparent film with the mucosal aspects upwards, and imaged by the Odyssey® Infrared Imaging System (Li-Cor Biosciences, Lincoln, Nebr., USA.) with excitation wavelength of 780 nm and emission wavelength of 800 nm.

[5] = immediately post administration of 0.1 mg/ml (200 μg)

HPMA copolymer bearing IR783-S-Ph-COOH [P-(AP-IR783)]
background staining in control mice without tumors ([1]; 40 μg per mouse (0.2 mg/ml), images taken at 4 hours following washing): very little background staining
staining in samples taken from mice having tumors ([1]; 40 μg per mouse (0.2 mg/ml), tumors verified by pathologic evaluation): clear staining was evident
tumor associated-vasculature staining ([1]; intraluminal application): staining was evident
accumulation in cancerous tissue ([1]; polymer applied intraluminally, LS174T tumor model): Selective accumulation
staining of region 4 (no tumors macroscopically; tumors in the submucosa) [2, 5]: stained intensely
staining of surface exposed regions (boxes 2, 3) [2, 5]: stained intensely
accumulation in cancerous tissue ([2]; polymer applied intraluminally, HT-29 tumor model): Selective accumulation
binding to near healthy tissue [3]: very low binding
staining at cancerous region in the tissue (polyp and tumor) [3]: markedly intense staining
accumulation in cancerous tissue [4]: Selective accumulation
